We go through three compounds from ChEMBL document CHEMBL3508693 (2016).

Series [1] in a line: % SPP100 (0-168h) recovered in urine following single oral dose of [14C] aliskiren hemifumarate at 3 mg.Kg-1 level in marmoset. Type of series: ADME, organism-based, Callithrix jacchus. The note with it: in vivo.
The nature of series [2]: Excretion (0-168h) of aliskiren in urine following oral administration of [14C] aliskiren hemifumarate at 3 mg.Kg-1 level in marmoset. The class given is ADME, organism-based, Callithrix jacchus. The note with it: in vivo.
Series [3] is described as follows: Excretion (0-72h) of aliskiren in faeces following oral administration of [14C] aliskiren hemifumarate at 3 mg.Kg-1 level in marmoset. Type of series: ADME, organism-based, Callithrix jacchus, Feces. The note with it: in vivo.
The next series concerns the target T1, CYP2A6 (Homo sapiens, UniProt P11509).
T1 sequence (P11509 whole entry): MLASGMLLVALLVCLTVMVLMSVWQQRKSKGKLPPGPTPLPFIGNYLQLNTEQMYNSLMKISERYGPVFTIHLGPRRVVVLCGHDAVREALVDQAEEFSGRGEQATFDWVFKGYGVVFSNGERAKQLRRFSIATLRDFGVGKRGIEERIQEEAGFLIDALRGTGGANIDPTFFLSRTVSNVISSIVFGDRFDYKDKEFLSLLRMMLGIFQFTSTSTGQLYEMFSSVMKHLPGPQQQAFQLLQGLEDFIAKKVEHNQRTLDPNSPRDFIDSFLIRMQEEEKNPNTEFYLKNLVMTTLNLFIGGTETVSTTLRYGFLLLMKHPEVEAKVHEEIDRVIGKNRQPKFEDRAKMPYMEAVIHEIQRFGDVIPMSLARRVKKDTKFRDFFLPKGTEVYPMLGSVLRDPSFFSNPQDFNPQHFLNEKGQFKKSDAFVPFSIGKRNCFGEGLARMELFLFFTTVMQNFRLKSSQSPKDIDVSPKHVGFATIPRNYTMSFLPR
The experiment in a line: Inhibitory activity of 200 uM SPP100 on 37 Pmoles of cDNA-derived CYP2A6 enzyme in microsome prepared from human lymphoblastoid cell line. Particulars: probe coumarine. The class given is ADME, microsomes. Details: conc 200 uM, interact cpd conc 3 uM.

For another series, the target named is CYP2C19 (Homo sapiens, UniProt P33261). The series is described as follows: Inhibitory activity of 200 uM SPP100 on 1375 Pmoles of cDNA-derived CYP2C19 enzyme in microsome prepared from human lymphoblastoid cell line. Type of series: ADME, microsomes. Particulars: probe (S)-mephenytoin (50 uM). Details: conc 200 uM, interact cpd conc 50 uM.
CYP2C19, sequence (P33261 whole entry): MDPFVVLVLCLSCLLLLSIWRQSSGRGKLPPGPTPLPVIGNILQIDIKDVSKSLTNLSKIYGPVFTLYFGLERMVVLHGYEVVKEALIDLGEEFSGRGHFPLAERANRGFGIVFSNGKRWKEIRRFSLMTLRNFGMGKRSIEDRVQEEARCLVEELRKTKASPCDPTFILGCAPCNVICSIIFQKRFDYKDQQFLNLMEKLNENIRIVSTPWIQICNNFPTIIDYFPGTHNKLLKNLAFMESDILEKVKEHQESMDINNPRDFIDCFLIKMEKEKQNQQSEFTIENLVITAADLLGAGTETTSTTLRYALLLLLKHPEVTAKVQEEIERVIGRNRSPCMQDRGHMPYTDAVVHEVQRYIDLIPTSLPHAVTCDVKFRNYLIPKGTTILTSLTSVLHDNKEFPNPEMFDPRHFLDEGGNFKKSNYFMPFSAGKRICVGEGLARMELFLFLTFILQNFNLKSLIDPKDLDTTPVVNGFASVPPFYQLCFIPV
Series [4] is described as follows: Excretion (0-96h) of 14C-radioactivity in urine following single oral dose of 300 mg [14C]SPP100 studied in healthy men. Type of series: ADME, organism-based. Particulars: human, in vivo, at 300 mg.
Series [5] is described as follows: Excretion (0-96h) of 14C-radioactivity in faeces following single oral dose of 300 mg [14C]SPP100 studied in healthy men. The class given is ADME, organism-based, Feces. Particulars: human, in vivo, at 300 mg.
The nature of series [6]: Mean excretion of radioactivity (0-24h) in urine and faeces following single oral dose of 500 mg.Kg-1 [14C] aliskiren hemifumarate in mouse. Type of series: ADME, organism-based, TgRasH2, Urine/Feces. Particulars: in vivo.
Series [7] is described as follows: Mean excretion of radioactivity (48-72h) in urine and faeces following single oral dose of 500 mg.Kg-1 [14C] aliskiren hemifumarate in mouse. Type of series: ADME, organism-based, TgRasH2, Urine/Feces. The note with it: in vivo.
A short description of series [8]: Elimination (0-96h) of radioactivity via biliary route following oral administration of [14C] aliskiren hemifumarate at 100 mg.Kg-1 level in rat. Type of series: ADME, organism-based, Albino HAN:WIST, Bile. Particulars: in vivo.
The next series concerns the target Cytochrome P450 3A7 (Homo sapiens, UniProt P24462). The experiment in a line: Metabolic clearance (ul.min.nmol-1 CYP) of aliskiren hemifumarate for CYP3A7 was determined in human liver microsome incubated with [14C]SPP100 hemifumarate. The class given is ADME. Particulars: microsomes.
Series [9] is described as follows: Excretion of radioactivity (0-96h) in urine following single intravenous dose of 10 mg.Kg-1 [14C] aliskiren hemifumarate in rat. Type of series: ADME, organism-based, Albino HAN:WIST. The note with it: in vivo.
Series [10] in a line: Cmax of radioactivity following repeated oral administration of [14C] aliskiren hemifumarate at 100 mg.Kg-1 level studied after 2h of dosing on day 1 in rat. The class given is ADME, organism-based, Albino HAN:WIST. The note with it: in vivo, read-out: Cmax(1).
A short description of series [11]: Concentration of radioactivity in the colon wall following repeated oral administration of [14C] aliskiren hemifumarate at 100 mg.Kg-1 level studied at 24h after 7th dose in rat. The note with it: in vivo. Type of series: ADME, organism-based, Albino HAN:WIST.
A short description of series [12]: Concentration of radioactivity in the colon wall following repeated oral administration of [14C] aliskiren hemifumarate at 100 mg.Kg-1 level studied at 2h after 10th dose in rat. Type of series: ADME, organism-based, Albino HAN:WIST. The note with it: in vivo.
Series [13] is described as follows: Concentration of radioactivity in the brown fat following repeated oral administration of [14C] aliskiren hemifumarate at 100 mg.Kg-1 level studied at 24h after 7th dose in rat. Particulars: in vivo. The class given is ADME, organism-based, Albino HAN:WIST, Brown adipose tissue.
Series [14] is described as follows: Concentration of radioactivity in the kidney medulla following repeated oral administration of [14C] aliskiren hemifumarate at 100 mg.Kg-1 level studied at 2h after 3rd dose in rat. The note with it: in vivo. The class given is ADME, organism-based, Albino HAN:WIST, Renal medulla.
The nature of series [15]: AUC (0-96 or 0-168h) of total radioactivity following single intravenous administration of [14C] aliskiren hemifumarate at 1 mg.Kg-1 level in marmoset. The note with it: in vivo. The class given is ADME, organism-based, Callithrix jacchus, Plasma.
Series [16] is described as follows: Apparent terminal half-life (0-168h) of unlabeled aliskiren hemifumarate following single intravenous administration of aliskiren hemifumarate at 1 mg.Kg-1 level in marmoset. Type of series: ADME, organism-based, Callithrix jacchus. Particulars: plasma.
The nature of series [17]: Cmax of aliskiren hemifumarate following 8 day once-daily dosing of SPP100B oral solution at 80 mg level studied on day 8 in men. The class given is ADME, organism-based. Particulars: male, human, plasma.
Series [18] can be described thus: Tmax of aliskiren hemifumarate following 8 day once-daily dosing of SPP100B oral solution at 80 mg level studied on day 8 in men. The class given is ADME, organism-based. The note with it: male, human, plasma.
Series [19] is described as follows: Tmax of unlabeled aliskiren hemifumarate following single oral dose of aliskiren hemifumarate at 500 mg.Kg-1 level in mouse. Type of series: ADME, organism-based. The note with it: TgRasH2, mouse, plasma.
Series [20] is described as follows: Cmax of unlabeled aliskiren hemifumarate following single oral dose of aliskiren hemifumarate at 500 mg.Kg-1 level in mouse. Type of series: ADME, organism-based. The note with it: TgRasH2, mouse, plasma.
Series [21] is described as follows: Cmax/dose (0-96h) of unlabeled aliskiren hemifumarate following oral administration of aliskiren hemifumarate at 100 mg.Kg-1 level in rat. The class given is ADME, organism-based, Albino HAN:WIST, Plasma. Particulars: in vivo.
Series [22] is described as follows: Effect of 2 week oral dosing of aliskiren hemifumarate at 100 mg.Kg-1 level on plasma magnesium level in male Callithrix jacchus. Particulars: marmoset, 336 h. Type of series: toxicity, organism-based.
Series [23] in a line: Cmaxspec of aliskiren hemifumarate following 2 week oral dosing of aliskiren hemifumarate at 50 mg.Kg-1 level studied on day 1 in female Callithrix jacchus. The class given is ADME, organism-based, Plasma. Particulars: marmoset, in vivo, 336 h.
A short description of series [24]: Effect of 4 week oral dietary dosing of aliskiren hemifumarate at 2000 mg.Kg-1 level on ovarian follicular atresia in female mouse. Particulars: in vivo, 672 h. The class given is toxicity, organism-based, CB6F1-TGrasH2, Ovarian follicle.
Series [25] can be described thus: Cmax/dose of aliskiren hemifumarate following 4 week oral dietary dosing of aliskiren hemifumarate at 1000 mg.Kg-1 level in female mouse. Type of series: ADME, organism-based, CB6F1-TGrasH2. The note with it: in vivo, 672 h.
A short description of series [26]: AUC (0-24h)/dose of aliskiren hemifumarate following 4 week oral dietary dosing of aliskiren hemifumarate at 2000 mg.Kg-1 level in female mouse. Type of series: ADME, organism-based, CB6F1-TGrasH2, Plasma. Particulars: in vivo.
Series [27] can be described thus: AUC(0-24h) of aliskiren hemifumarate following 2 week oral dosing of aliskiren hemifumarate at 100 mg.Kg-1 level studied on day 1 in male Callithrix jacchus. The note with it: marmoset, plasma. The class given is ADME, organism-based.
Series [28] can be described thus: AUC(0-24h) of aliskiren hemifumarate following 2 week oral dosing of aliskiren hemifumarate at 50 mg.Kg-1 level studied on day 14 in female Callithrix jacchus. The class given is ADME, organism-based. The note with it: marmoset, plasma.
The nature of series [29]: AUCspec of aliskiren hemifumarate following 2 week oral dosing of aliskiren hemifumarate at 100 mg.Kg-1 level studied on day 14 in female Callithrix jacchus. Type of series: ADME, organism-based, Plasma. The note with it: marmoset, in vivo, 336 h.
Series [30] can be described thus: Tmax (0-168h) of unlabeled aliskiren hemifumarate following single intravenous administration of aliskiren hemifumarate at 1 mg.Kg-1 level in marmoset. Particulars: plasma. The class given is ADME, organism-based, Callithrix jacchus.

Cytochrome P450 3A7, sequence (P24462 whole entry): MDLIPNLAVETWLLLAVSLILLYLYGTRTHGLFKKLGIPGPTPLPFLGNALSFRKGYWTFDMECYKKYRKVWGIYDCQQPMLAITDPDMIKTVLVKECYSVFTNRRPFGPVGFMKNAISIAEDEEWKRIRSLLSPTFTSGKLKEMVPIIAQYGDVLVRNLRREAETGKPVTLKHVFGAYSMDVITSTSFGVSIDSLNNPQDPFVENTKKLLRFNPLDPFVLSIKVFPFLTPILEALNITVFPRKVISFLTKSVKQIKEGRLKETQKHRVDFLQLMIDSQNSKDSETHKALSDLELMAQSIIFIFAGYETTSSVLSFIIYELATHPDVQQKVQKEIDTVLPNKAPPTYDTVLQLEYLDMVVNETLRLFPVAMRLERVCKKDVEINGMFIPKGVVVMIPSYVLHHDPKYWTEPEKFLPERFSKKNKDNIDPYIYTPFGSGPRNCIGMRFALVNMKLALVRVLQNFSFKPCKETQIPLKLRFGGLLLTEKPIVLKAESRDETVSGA

On to `COCCCOc1cc(C[C@@H](C[C@H](N)[C@@H](O)C[C@H](C(=O)NCC(C)(C)C(N)=O)C(C)C)C(C)C)ccc1OC`, for which the Compound recovery in series [1] was determined as 2.3%; in [2], 2.3%; in [3], 78%. Moreover, the inhibition at 200 µM is 2.6% at CYP2A6 and -15.4% against CYP2C19.
Regarding `COCCCOc1cc(C[C@@H](C[C@H](N)[C@@H](O)C[C@H](C(=O)NCC([14CH3])([14CH3])C(N)=O)C(C)C)C(C)C)ccc1OC.O=C(O)/C=C/C(=O)O`, the Radiolabel recovery in series [4] is recorded as 0.57%; in series [5] it was 88.17%; in series [6], 69.96%; in series [7] it was 9.33%; in series [8], “OUTCOME = Observed/Elimination of radioactivity was mainly via biliary route”; in [9], 94.4%. Besides, the Radiolabel recovery entry was “OUTCOME = Observed, VALUE = Highest radioactivity concentration was observed” in series [11]; “OUTCOME = Observed, VALUE = Highest radioactivity concentration was observed” in [12]; “OUTCOME = Detected” in series [13]; “OUTCOME = Detected” in [14]. This compound came in with a CL on Cytochrome P450 3A7 of 3.5 µL·min/nmol. In series [10], the peak concentration (Cmax) was 1090 nM. Further, the AUC in series [15] was 52.92 µM·h.
Consider `COCCCOc1cc(C[C@@H](C[C@H](N)[C@@H](O)C[C@H](C(=O)NCC(C)(C)C(N)=O)C(C)C)C(C)C)ccc1OC.COCCCOc1cc(C[C@@H](C[C@H](N)[C@@H](O)C[C@H](C(=O)NCC(C)(C)C(N)=O)C(C)C)C(C)C)ccc1OC.O=C(O)/C=C/C(=O)O` [ALISKIREN FUMARATE], for which the half-life in [16] is 36 h. The Cmax in [17] was 12.7 ng/mL; in series [20], 1450 nM. Besides, the Tmax is 1.8 h in [18], 1 h in series [19] and 4.98 min in series [30]. Also, the Cmax normalised in series [21] was 0.0027 (umol/L)/(mg/kg); in [23], 0.177 (ug/ml)/(mg/kg); in [25] it was 0.167 (ng/mL)/(mg/kg/day). Also, in series [22], the “Plasma magnesium_CHANGE_BY” value turned out to be 130%. For the same compound, the “Change in ovarian follicular atresia” value in series [24] is reported as “OUTCOME = Increased. No animals died during the study”. Besides, the AUC normalised in [26] is listed as 5.88 ((ng/mL).hours)/(mg/kg/day); in [29], 1.42 ((ug.h.ml-1)/(mg/kg). Moreover, the exposure AUC(0-t) at 24 h in [27] amounted to 76400 ng·h/mL. In series [28], this compound returned an area under the curve (AUC) at 24 h of 109000 ng·h/mL.

What is called inhibition is the change of the read-out against control, counted positive when it falls. By Cmax is commonly meant the highest concentration seen after dosing. By AUC is commonly meant concentration integrated over time. One may read the half-life as the time in which the quantity being followed falls by half. By Tmax is commonly meant the time at which the peak concentration occurs. Usually AUC(0-t) stands for the area under the concentration-time curve up to a stated or last time point. A higher AUC(0-t) goes with high exposure.
